ChEMBL document CHEMBL1123997, “Modeling of beta-adrenoceptors based on molecular electrostatic potential studies of agonists and antagonists” (J Med Chem, 1988)

Tests used:
[1] = target: T1, Adrenergic receptor beta (Homo sapiens) (UniProt P08588+P07550+P13945)
[2] = target: T1, Adrenergic receptor beta (Homo sapiens); conditions: filed as antagonist
[3] = target: T1, Adrenergic receptor beta (Homo sapiens); remark: listed apart in the source
[4] = target: T1, Adrenergic receptor beta (Homo sapiens); conditions: filed as agonist
Description: Tested for intrinsic sympathomimetic activity (ISA); Agonist

[5] = target: T1, Adrenergic receptor beta (Homo sapiens); conditions: filed as antagonist; remark: listed apart in the source

**Q.** `CC(C)NCC(O)c1ccc(Cl)c(Cl)c1` (centres undefined) was tested. Which ISA [1] did it give?
**A.** Its ISA is “Partial agonist”.

**Q.** With `CC(C)(C)NCC(O)COc1cccc2c1SCCC2` (centres undefined) as the compound, how does the ISA [2] read?
**A.** Its ISA is “Antagonist”.

**Q.** For `COc1ccc(CCNC[C@H](O)COc2ccc(Cc3nc(C(C)=O)c[nH]3)cc2)cc1OC`, which ISA [2] is on record?
**A.** Its ISA is “Antagonist”.

**Q.** How did the ISA [3] turn out when `COc1ccc(CCNC[C@H](O)COc2ccc(-c3nc(C(C)=O)c[nH]3)cc2)cc1OC` was run?
**A.** Its ISA is “Partial agonist”.

**Q.** How did the ISA [4] turn out when `NC[C@H](O)c1ccc(O)c(O)c1` was run?
**A.** The ISA was “Agonist”.

**Q.** With `CC(C)(C)NC[C@H](O)COc1cccc2c1CC1(CCCCC1)C2=O` as the compound, how does the ISA [2] read?
**A.** Its ISA is “Antagonist”.

**Q.** `COCCOc1ccc(OC[C@@H](O)CNC(C)C)cc1` was tested. Which ISA [1] did it give?
**A.** Its ISA is “Partial agonist”.

**Q.** How did the ISA [2] turn out when `CC(C)(C)NCC(O)COc1cccc2c1CC(O)C(O)C2` (centres undefined) was run?
**A.** Its ISA is “Antagonist”.

**Q.** How did the ISA [5] turn out when `CC(C)(C)NCC(O)COc1cccc2c1CCCC2=O` (centres undefined) was run?
**A.** Its ISA is “Antagonist”.

**Q.** With `CC(C)NCC(O)COc1cccc2[nH]ccc12` (centres undefined) as the compound, how does the ISA [1] read?
**A.** The ISA was “Partial agonist”.

**Q.** `Cc1cc2c(OCC(O)CNC(C)C)cccc2[nH]1` (centres undefined) was tested. Which ISA [3] did it give?
**A.** Its ISA is “Partial agonist”.

**Q.** With `CC(C)(C)NCC(O)COc1ccccc1C#N` (centres undefined) as the compound, how does the ISA [3] read?
**A.** The ISA was “Partial agonist”.

**Q.** How did the ISA [1] turn out when `CCc1cccc2cc(C(O)CNC(C)(C)C)oc12` (centres undefined) was run?
**A.** Its ISA is “Partial agonist”.

**Q.** How did the ISA [3] turn out when `CCN(CC)C(=O)Nc1ccc(OCC(O)CNC(C)(C)C)c(C(C)=O)c1` (centres undefined) was run?
**A.** The ISA was “Partial agonist”.
